Experimental data taken from patent publication US20260184707A1, “PHARMACEUTICAL COMPOUNDS FOR THE TREATMENT OF COMPLEMENT MEDIATED DISORDERS” (ALEXION PHARMACEUTICALS, INC., priority 2022, published 2026).

The compounds below were run against T1, Human complement C1s enzyme (Homo sapiens, UniProt P09871) (assay: Human C1s enzyme assay). Details: human complement C1s enzyme 1.16 nM, substrate Z-L-Lys-SBzl, A405; read-out: IC50 (Stars).
T1 construct: purified from human serum, Complement Technology, Inc; purchased Complement Technology, Inc; host or cells: human serum (plasma-derived native protein)
T1 sequence (P09871 438-688 limits assumed): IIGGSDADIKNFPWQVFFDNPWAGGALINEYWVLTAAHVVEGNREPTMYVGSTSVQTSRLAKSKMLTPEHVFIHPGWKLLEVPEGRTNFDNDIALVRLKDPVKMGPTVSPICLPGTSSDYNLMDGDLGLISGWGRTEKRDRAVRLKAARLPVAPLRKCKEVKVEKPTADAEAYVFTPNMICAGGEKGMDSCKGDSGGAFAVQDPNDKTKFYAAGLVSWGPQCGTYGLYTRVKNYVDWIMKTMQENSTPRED
T1 sequence (P09871 16-437 partner limits assumed): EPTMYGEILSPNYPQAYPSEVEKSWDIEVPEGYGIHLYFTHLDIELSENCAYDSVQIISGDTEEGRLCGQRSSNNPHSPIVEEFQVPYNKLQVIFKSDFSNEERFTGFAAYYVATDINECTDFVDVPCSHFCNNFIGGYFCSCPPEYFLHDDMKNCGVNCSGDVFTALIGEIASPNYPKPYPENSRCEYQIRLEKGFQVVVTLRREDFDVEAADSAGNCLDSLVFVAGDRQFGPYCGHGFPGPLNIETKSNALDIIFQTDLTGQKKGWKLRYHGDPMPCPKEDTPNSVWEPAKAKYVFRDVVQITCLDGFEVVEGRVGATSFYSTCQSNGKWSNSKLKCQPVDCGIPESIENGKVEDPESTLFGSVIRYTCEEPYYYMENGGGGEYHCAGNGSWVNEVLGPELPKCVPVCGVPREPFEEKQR
Format: biochemical
Outline: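 Serum-purified human C1s (1.16 nM final) preincubated 5 min at room temperature with compound in 50 mM Tris, 1 M NaCl, pH 7.5. Z-L-Lys-SBzl and DTNB added at 100 μM each; A405 recorded every 30 s. IC50 from nonlinear regression of reaction rates versus compound concentration.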
Work on `C[C@@H](Nc1cnc(-c2cn[nH]c2)n(CC(=O)NCc2cc3cnccc3[nH]2)c1=O)c1ccc2oc3ccccc3c2c1` [Compound 360, (R)—N-((1H-pyrrolo[3,2-c]pyridin-2-yl)methyl)-2-(5-((1-(dibenzo[b,d]furan-2-yl)ethyl)amino)-6-oxo-2-(1H-pyrazol-4-yl)pyrimidin-1(6H)-yl)acetamide] yielded an IC50 of under 100 nM.
In the case of `O=C(Cn1c(-c2ccccc2)ncc(NCCCc2ccccc2)c1=O)N[C@@H](CO)c1cc2cnccc2[nH]1` [Compound 16, (R)-N-(2-hydroxy-1-(1H-pyr-rolo[3,2-c]pyridin-2-yl)ethyl)-2-(6-oxo-2-phenyl-5-((3-phen-ylpropyl)amino)pyrimidin-1(6H)-yl)acetamide], the IC50 is reported as over 1000 nM.
For `O=C(Cn1c(-c2ccccc2)cnc(NCCCc2ccccc2)c1=O)N[C@H](CO)c1cc2cnccc2[nH]1` [Compound 13, (S)-N-(2-hydroxy-1-(1H-pyr-rolo[3,2-c]pyridin-2-yl)ethyl)-2-(2-oxo-6-phenyl-3-((3-phen-ylpropyl)amino)pyrazin-1(2H)-yl)acetamide], the IC50 was 100 to 1000 nM.
`CO[C@@H]1CO[C@H]2[C@@H]1OC[C@H]2Oc1ccc(-c2ncc(NC(=O)c3ccc(-c4ccccc4)s3)c(=O)n2CC(=O)NCc2cc3cnccc3[nH]2)cc1` [Compound 249, N-(1-(2-(((1H-pyrrolo[3,2-c]pyridine-2-yl)methyl)amino)-2-oxoethyl)-2-(4-(((3R,3aR,6R,6aR)-6-methoxyhexahydrofuro[3,2-b]furan-3-yl)oxy)phenyl)-6-oxo-1,6-dihydropyrimidin-5-yl)-5-phenylthiophene-2-carboxamide] gave an IC50 of under 100 nM.
With `Cc1cnc(N[C@@H](C)c2ccc3oc4ccccc4c3c2)c(=O)n1CC(=O)NCc1cc2cnccc2[nH]1` [Compound 316, (S)-N-((1H-pyrrolo[3,2-c]pyridin-2-yl)methyl)-2-(3-((1-(dibenzo[b,d]furan-2-yl)ethyl)-amino)-6-methyl-2-oxopyrazin-1(2H)-yl)acetamide] the IC50 was under 100 nM.
`C[C@@H](Nc1ncc(-c2cscn2)n(CC(=O)NCc2cc3cnccc3[nH]2)c1=O)c1ccc(-c2ccccc2F)cc1` [Compound 432, (R)-N-((1H-pyrrolo[3,2-c]pyridin-2-yl)methyl)-2-(3-((1-(2′-fluoro-[1,1′-biphenyl]-4-yl)ethyl)amino)-2-oxo-6-(thiazol-4-yl)pyrazin-1(2H)-yl)acetamide] was tested, and the IC50 was under 100 nM.
`O=C(Cn1c(-c2ccc(F)c(F)c2)ncc(NC(=O)c2ccc(-c3ccccc3)cc2)c1=O)NCc1cc2cnccc2[nH]1` [Compound 226, N-(1-(2-(((1H-pyrrolo[3,2-c]pyridin-2-yl)methyl)amino)-2-oxoethyl)-2-(3,4-difluorophen-yl)-6-oxo-1,6-dihydropyrimi-din-5-yl)-[1,1′-biphenyl]-4-carboxamide] was tested, and the IC50 was under 100 nM.
Compound `C[C@H](Nc1cnc(N2CCCCC2)n(CC(=O)NCc2cc3cnccc3[nH]2)c1=O)c1ccc2oc3ccccc3c2c1` [Compound 284, (S)-N-((1H-pyrrolo[3,2-c]pyr-idin-2-yl)methyl)-2-(5-((1-(dibenzo[b,d]furan-2-yl)ethyl)-amino)-6-oxo-2-(piperidin-1-yl)pyrimidin-1(6H)-yl)acet-amide] has an IC50 of under 100 nM.
Work on `C[C@@H](Nc1cnc(-n2cccc2)n(CC(=O)NCc2cc3cnccc3[nH]2)c1=O)c1ccc2oc3ccccc3c2c1` [Compound 397, (R)-N-((1H-pyrrolo[3,2-c]pyridin-2-yl)methyl)-2-(5-((1-(dibenzo[b,d]furan-2-yl)ethyl)-amino)-6-oxo-2-(1H-pyrrol-1-yl)pyrimidin-1(6H)-yl)acet-amide] yielded an IC50 of under 100 nM.
For `N#Cc1ccc(CCNc2cnc(-c3ccccc3)n(CC(=O)NCc3cc4cnccc4[nH]3)c2=O)cc1` [Compound 28, N-((1H-pyrrolo[3,2-c]pyridine-2-yl)methyl)-2-(5-((4-cyanophenethyl)amino)-6-oxo-2-phenylpyrimidin-1(6H)-yl)acetamide], the IC50 was under 100 nM.
With `O=C(Cn1c(N2CCOCC2)ncc(NC(=O)CCc2ccccc2)c1=O)NCc1cc2cnccc2[nH]1` [Compound 409, N-(1-(2-(((1H-pyrrolo[3,2-c]pyridin-2-yl)methyl)amino)-2-oxoethyl)-2-morpholino-6-oxo-1,6-dihydropyrimidin-5-yl)-3-phenylpropanamide] the IC50 was under 100 nM.
`C[C@@H](Nc1cnc(N2CCNCC2)n(CC(=O)NCc2cc3cnccc3[nH]2)c1=O)c1ccc2oc3ccccc3c2c1` [Compound 376, (R)—N-((1H-pyrrolo[3,2-c]pyridine-2-yl)methyl)-2-(5-((1-(dibenzo[b,d]furan-2-yl)ethyl)amino)-6-oxo-2-(piperazin-1-yl)pyrimidin-1(6H)-yl)acetamide] gave an IC50 of under 100 nM.
`Cc1cccc(-c2ncc(N[C@H](C)c3ccc4oc5ccccc5c4c3)c(=O)n2CC(=O)NCc2cc3cnccc3[nH]2)c1` [Compound 292, (R)-N-((1H-pyrrolo[3,2-c]pyr-idin-2-yl)methyl)-2-(5-((1-(dibenzo[b,d]furan-2-yl)ethyl)-amino)-6-oxo-2-(m-tolyl)pyr-imidin-1(6H)-yl)acetamide] showed an IC50 of under 100 nM.
Compound `O=C(Cn1c(-c2ccccc2)ncc(NCCCc2ccc3sc4ccccc4c3c2)c1=O)NCc1cc2cnccc2[nH]1` [Compound 64, N-((1H-pyrrolo[3,2-c]pyridin-2-yl)methyl)-2-(5-((3-(dibenzo [b,d]thiophen-2-yl)propyl)-amino)-6-oxo-2-phenylpyrimi-din-1(6H)-yl)acetamide] has an IC50 of under 100 nM.
Work on `O=C(Cn1c(-c2ccccc2)ncc(NC(=O)c2ccc(-c3ccc(F)cc3)cc2)c1=O)NCc1cc2cnccc2[nH]1` [Compound 99, N-(1-(2-(((1H-pyrrolo[3,2-c]pyridin-2-yl)methyl)amino)-2-oxoethyl)-6-oxo-2-phenyl-1,6-dihydropyrimidin-5-yl)-4′-fluoro-[1,1′-biphenyl]-4-carboxamide] yielded an IC50 of under 100 nM.
Compound `CO[C@@H]1CO[C@H]2[C@@H]1OC[C@H]2Oc1ccc(-c2ncc(N[C@H](C)c3ccc4oc5ccccc5c4c3)c(=O)n2CC(=O)NCc2cc3cnccc3[nH]2)cc1` [Compound 238, N-((1H-pyrrolo[3,2-c]pyridin-2-yl)methyl)-2-(5-(((R)-1-(dibenzo[b,d]furan-2-yl)ethyl)-amino)-2-(4-(((3R,3aR,6R, 6aR)-6-methoxyhexahydrofuro [3,2-b]furan-3-yl)oxy)phenyl)-6-oxopyrimidin-1(6H)-yl)acet-amide] has an IC50 of under 100 nM.
For `O=C(Cn1c(-c2cccc(F)c2)ncc(NCc2ccc3oc4ccccc4c3c2)c1=O)NCc1cc2cnccc2[nH]1` [Compound 117, N-((1H-pyrrolo[3,2-c]pyridin-2-yl)methyl)-2-(5-((dibenzo [b,d]furan-2-ylmethyl)amino)-2-(3-fluorophenyl)-6-oxopyr-imidin-1(6H)-yl)acetamide], the IC50 was under 100 nM.
`C[C@H](Nc1cnc(C2=CCCCC2)n(CC(=O)NCc2cc3cnccc3[nH]2)c1=O)c1ccc2oc3ccccc3c2c1` [Compound 272, (S)-N-((1H-pyrrolo[3,2-c]pyr-idin-2-yl)methyl)-2-(2-(cyclo-hex-1-en-1-yl)-5-((1-(dibenzo [b,d]furan-2-yl)ethyl)amino)-6-oxopyrimidin-1(6H)-yl)acet-amide] showed an IC50 of under 100 nM.
`O=C(Cn1c(-c2ccccc2)ncc(Nc2ccc(F)cc2)c1=O)NCc1cc2cnccc2[nH]1` [Compound 212, N-((1H-pyrrolo[3,2-c]pyridin-2-yl)methyl)-2-(5-((4-fluoro-phenyl)amino)-6-oxo-2-phen-ylpyrimidin-1(6H)-yl)acet-amide] gave an IC50 of under 100 nM.
With `C[C@@H](Nc1cnc(-c2ccccc2)n(CC(=O)NCc2cc3cnccc3[nH]2)c1=O)c1ccc2c(c1)-c1ccccc1C2(F)F` [Compound 359, (R)-N-((1H-pyrrolo[3,2-c]pyridin-2-yl)methyl)-2-(5-((1-(9,9-difluoro-9H-fluoren-3-yl)-ethyl)amino)-6-oxo-2-phenyl-pyrimidin-1(6H)-yl)acetamide] the IC50 was under 100 nM.
Work on `O=C(Cn1c(-c2ccccn2)ncc(NCc2ccc3oc4ccccc4c3c2)c1=O)NCc1cc2cnccc2[nH]1` [Compound 252, N-((1H-pyrrolo[3,2-c]pyridin-2-yl)methyl)-2-(5-((dibenzo [b,d]furan-2-ylmethyl)amino)-6-oxo-2-(pyridin-2-yl)pyrimi-din-1(6H)-yl)acetamide] yielded an IC50 of under 100 nM.
`C[C@@H](Nc1ncc(C2CCOCC2)n(CC(=O)NCc2cc3cnccc3[nH]2)c1=O)c1ccc2oc3ccccc3c2c1` [Compound 471, (R)—N-((1H-Pyrrolo[3,2-c]pyridine-2-yl)methyl)-2-(3-((1-(dibenzo[b,d]furan-2-yl)ethyl)amino)-2-oxo-6-(tetrahydro-2H-pyran-4-yl)pyrazin-1(2H)-yl)acetamide] showed an IC50 of under 100 nM.
`O=C(Cn1c(-c2ccccc2)ncc(NC(=O)c2ccc(-c3ccccc3F)cc2)c1=O)NCc1cc2cnccc2[nH]1` [Compound 214, N-(1-(2-(((1H-pyrrolo[3,2-c]pyridin-2-yl)methyl)amino)-2-oxoethyl)-6-oxo-2-phenyl-1,6-dihydropyrimidin-5-yl)-2′-fluoro-[1,1′-biphenyl]-4-carboxamide] was tested, and the IC50 was under 100 nM.
